{"source": "patent US20130295052A1", "about": "“NOVEL CONJUGATES FOR TARGETED DRUG DELIVERY” (priority 2010, published 2013)", "origin": "cited, not measured here", "note": "Where two headings read alike, the source gives them in different places."}
{"smiles": "CC(=O)O[C@@]12CO[C@@H]1C[C@H](O)[C@@]1(C)C(=O)[C@H](O)C3=C(C)[C@@H](OC(=O)[C@H](O)[C@@H](NC(=O)OC(C)(C)C)c4ccccc4)C[C@@](O)([C@@H](OC(=O)c4ccccc4)[C@H]21)C3(C)C", "note": "[Taxotere, Docetaxel]", "values": [{"measurement": "grade 4 neutropenia (<500 cells/mm3), patients", "setting": "60 mg/m2", "result": 75, "unit": "%"}, {"measurement": "grade 4 neutropenia (<500 cells/mm3), patients", "setting": "100 mg/m2", "result": 85, "unit": "%"}, {"measurement": "neutropenia (<2,000 neutrophils/mm3) occurrence", "setting": "60-100 mg/m2", "result": "virtually in all patients"}]}
